Source: PubChem BioAssay AID328 (DTP/NCI, 2004)
Several values for one entry are separate records, joined by “and”; a condition that tells them apart may be missing. Identical values can stand only once. Inconclusive results and toxic doses are left out.

Tested on: BDF1 mice, P388 leukemia ip, median survival T/C
Assay: NCI In Vivo Anticancer Drug Screen. Data for tumor model P388 Leukemia (intraperitoneal) in B6D2F1 (BDF1) mice
Conditions: endpoint: median survival time, higher = longer survival
Procedure, shortened: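 Vehicle-dosed animals serve as the reference; survival of compound-dosed, tumour-implanted mice is divided by it.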

[1] = dose: 100.0 mg/kg/injection, schedule: Q01DX009 (ip), vehicle: Klucel (hydroxypropylcellulose) (HPC)
[2] = dose: 100.0 mg/kg/injection, schedule: Q04DX003 (ip), vehicle: Klucel (hydroxypropylcellulose) (HPC)
[3] = dose: 200.0 mg/kg/injection, schedule: Q01DX009 (ip), vehicle: Klucel (hydroxypropylcellulose) (HPC)
[4] = dose: 200.0 mg/kg/injection, schedule: Q04DX003 (ip), vehicle: Klucel (hydroxypropylcellulose) (HPC)
[5] = dose: 400.0 mg/kg/injection, schedule: Q01DX009 (ip), vehicle: Klucel (hydroxypropylcellulose) (HPC)
[6] = dose: 400.0 mg/kg/injection, schedule: Q04DX003 (ip), vehicle: Klucel (hydroxypropylcellulose) (HPC)
[7] = dose: 100.0 mg/kg/injection, schedule: Q01DX009 (ip), vehicle: saline with Tween-80
[8] = dose: 200.0 mg/kg/injection, schedule: Q01DX009 (ip), vehicle: saline with Tween-80
[9] = dose: 50.0 mg/kg/injection, schedule: Q01DX009 (ip), vehicle: saline with Tween-80
[10] = dose: 100.0 mg/kg/injection, schedule: Q04DX003 (ip), vehicle: saline with Tween-80
[11] = dose: 200.0 mg/kg/injection, schedule: Q04DX003 (ip), vehicle: saline with Tween-80
[12] = dose: 400.0 mg/kg/injection, schedule: Q04DX003 (ip), vehicle: saline with Tween-80
[13] = dose: 25.0 mg/kg/injection, schedule: Q01DX009 (ip), vehicle: Klucel (hydroxypropylcellulose) (HPC)
[14] = dose: 50.0 mg/kg/injection, schedule: Q01DX009 (ip), vehicle: Klucel (hydroxypropylcellulose) (HPC)
[15] = dose: 100.0 mg/kg/injection, schedule: Q01DX001 (ip), vehicle: saline with Tween-80
[16] = dose: 200.0 mg/kg/injection, schedule: Q01DX001 (ip), vehicle: saline with Tween-80
[17] = dose: 400.0 mg/kg/injection, schedule: Q01DX001 (ip), vehicle: saline with Tween-80
[18] = dose: 12.5 mg/kg/injection, schedule: Q01DX009 (ip), vehicle: saline with Tween-80

`O=c1cc(CCl)[nH]nc1CCl` was tested, and the T/C (dose: 14.5 mg/kg/injection, schedule: Q04DX003 (ip), vehicle: saline with Tween-80) was 166 % of control, the T/C (dose: 22.0 mg/kg/injection, schedule: Q04DX003 (ip), vehicle: saline with Tween-80) was 159 % of control and the T/C (dose: 33.0 mg/kg/injection, schedule: Q04DX003 (ip), vehicle: saline with Tween-80) was 151 % of control. The T/C (dose: 75.0 mg/kg/injection, schedule: Q04DX003 (ip), vehicle: saline with Tween-80) was 98 % of control.

For `COc1cc([N+](=O)[O-])c(/C=C2/c3cc(OC)c(OC)cc3CCN2C)cc1Br`, the T/C [1] was 109 % of control, the T/C [2] was 100 % of control and the T/C [3] was 90 % of control. For the same compound, the T/C [4] was 100 % of control, the T/C [5] was 104 % of control and the T/C [6] was 100 % of control.

In the case of `CC(C)(C)c1ccc2c(cc[n+]3ccccc23)c1`, the T/C (dose: 1.56 mg/kg/injection, schedule: Q01DX005 (ip), vehicle: saline with Tween-80) is reported as 115 % of control and the T/C (dose: 3.13 mg/kg/injection, schedule: Q01DX005 (ip), vehicle: saline with Tween-80) is reported as 123 % of control.

With `Clc1ccc(/C(=C(\Br)c2ccccc2)c2ccccc2)cc1` the T/C [7] was 104 % of control and 100 % of control, the T/C [8] was 86 % of control and 100 % of control and the T/C (dose: 400.0 mg/kg/injection, schedule: Q01DX009 (ip), vehicle: saline with Tween-80) was 95 % of control and 90 % of control.

With `C[As](C)SCC1OC2OC(C)(C)OC2C2OC(C)(C)OC12` (stereo unspecified) the T/C [9] was 110 % of control and 123 % of control.

With `CN(C)[C@@H]1C(=O)C(C(N)=O)=C(O)[C@]2(O)C(=O)C3C(=O)c4c(O)ccc(Cl)c4[C@](C)(O)[C@H]3C[C@@H]12` (stereo partly specified) the T/C (dose: 33.0 mg/kg/injection, schedule: Q04DX003 (ip), vehicle: saline sonified) was 115 % of control.

With `Cc1ccccc1NC(=O)c1ccc([N+](=O)[O-])cc1` the T/C [10] was 96 % of control, the T/C [11] was 108 % of control and the T/C [12] was 96 % of control.

In the case of `N#CC(Nc1ccccc1)C1CC1c1ccccc1` (stereo unspecified), the T/C (dose: 12.5 mg/kg/injection, schedule: Q01DX009 (ip), vehicle: Klucel (hydroxypropylcellulose) (HPC)) is reported as 90 % of control, the T/C [13] is reported as 90 % of control and the T/C [14] is reported as 90 % of control.

In the case of `O=C1OC(c2ccccc2)CC1NCc1ccccc1` (stereo unspecified), the T/C [15] is reported as 100 % of control, the T/C [16] is reported as 100 % of control and the T/C [17] is reported as 100 % of control.

With `COC(=O)c1cc[nH]c1CC(=O)O` the T/C [15] was 101 % of control, the T/C [16] was 106 % of control and the T/C [17] was 110 % of control.

In the case of `CCC(CC)C(=O)NC`, the T/C (dose: 50.0 mg/kg/injection, schedule: Q01DX005 (ip), vehicle: saline with Tween-80) is reported as 104 % of control, the T/C (dose: 100.0 mg/kg/injection, schedule: Q01DX005 (ip), vehicle: saline with Tween-80) is reported as 104 % of control and the T/C (dose: 200.0 mg/kg/injection, schedule: Q01DX005 (ip), vehicle: saline with Tween-80) is reported as 95 % of control.

In the case of `CC(=O)OCC12CCC(C)=CC1O[C@H]1[C@@H](OC(C)=O)[C@H](OC(C)=O)[C@]2(C)[C@@]12CO2` (stereo partly specified), the T/C (dose: 2.5 mg/kg/injection, schedule: Q04DX002 (ip), vehicle: saline + alcohol) is reported as 96 % of control.

In the case of `CN=C(N)c1ccc(N=C(N)c2ccc(N=C(N)c3ccc(N)cc3)cc2)cc1`, the T/C (dose: 16.0 mg/kg/injection, schedule: Q01DX009 (ip), vehicle: saline) is reported as 227 % of control, the T/C (dose: 25.0 mg/kg/injection, schedule: Q01DX009 (ip), vehicle: saline) is reported as 245 % of control and the T/C (dose: 35.0 mg/kg/injection, schedule: Q01DX009 (ip), vehicle: saline) is reported as 195 % of control.

For `Nc1nc(N)c2cc(S(=O)c3ccc4ccccc4c3)ccc2n1` (stereo unspecified), the T/C [9] was 95 % of control, the T/C [7] was 95 % of control and the T/C [8] was 104 % of control.

For `OC1COC(O)C(O)C1O` (stereo unspecified), the T/C (dose: 250.0 mg/kg/injection, schedule: Q04DX003 (ip), vehicle: saline) was 102 % of control, the T/C (dose: 500.0 mg/kg/injection, schedule: Q04DX003 (ip), vehicle: saline) was 100 % of control and the T/C (dose: 1000.0 mg/kg/injection, schedule: Q04DX003 (ip), vehicle: saline) was 100 % of control. The T/C (dose: 2000.0 mg/kg/injection, schedule: Q04DX003 (ip), vehicle: saline) was 111 % of control.

With `COC(=O)c1c(I)cccc1[N+](=O)[O-]` the T/C [2] was 91 % of control, the T/C [4] was 95 % of control and the T/C [6] was 100 % of control.

With `O=C(Nc1cccc(C(F)(F)F)c1)C12CC3CC(CC(C3)C1)C2` the T/C [18] was 92 % of control, the T/C [9] was 87 % of control and the T/C [7] was 90 % of control.

For `Cc1nc2ccccc2c(=O)n1/N=C/c1ccco1`, the T/C [9] was 107 % of control and the T/C [7] was 90 % of control.

`C=CCN(CC=C)c1ccccc1` was tested, and the T/C [1] was 104 % of control, the T/C [2] was 100 % of control and the T/C [3] was 109 % of control. The T/C [4] was 100 % of control, the T/C [5] was 122 % of control and the T/C [6] was 112 % of control.

With `COc1cccc2c1cc([N+](=O)[O-])c1c(C(=O)O)cc3c(c12)OCO3` the T/C (dose: 1.25 mg/kg/injection, schedule: Q01DX010 (ip), vehicle: water) was 100 % of control, the T/C (dose: 2.5 mg/kg/injection, schedule: Q01DX010 (ip), vehicle: water) was 118 % of control and the T/C (dose: 5.0 mg/kg/injection, schedule: Q01DX010 (ip), vehicle: other) was 86 % of control.

With `Nc1[nH]c(=S)[nH]c(=O)c1N` the T/C (dose: 75.0 mg/kg/injection, schedule: Q01DX009 (ip), vehicle: Klucel (hydroxypropylcellulose) (HPC)) was 115 % of control, the T/C (dose: 100.0 mg/kg/injection, schedule: Q01DX001 (ip), vehicle: Klucel (hydroxypropylcellulose) (HPC)) was 95 % of control and the T/C (dose: 200.0 mg/kg/injection, schedule: Q01DX001 (ip), vehicle: Klucel (hydroxypropylcellulose) (HPC)) was 95 % of control.

For `COC1C(O)CC(=O)OC(C)C/C=C/C=C/C(OC2CCC(N(C)C)C(C)O2)C(C)CC(CC=O)C1OC1OC(C)C(OC2CC(C)(O)C(O)C(C)O2)C(N(C)C)C1O` (stereo unspecified), the T/C (dose: 6.25 mg/kg/injection, schedule: Q01DX009 (ip), vehicle: saline with Tween-80) was 102 % of control, the T/C [18] was 94 % of control and the T/C (dose: 25.0 mg/kg/injection, schedule: Q01DX009 (ip), vehicle: saline with Tween-80) was 100 % of control.

For `CN(C)CC(Cl)CCl` (stereo unspecified), the T/C (dose: 50.0 mg/kg/injection, schedule: Q01DX009 (ip), vehicle: saline) was 103 % of control and 118 % of control, the T/C (dose: 178.0 mg/kg/injection, schedule: Q01DX009 (ip), vehicle: saline) was 178 % of control and the T/C (dose: 200.0 mg/kg/injection, schedule: Q01DX009 (ip), vehicle: saline) was 118 % of control and 168 % of control and 209 % of control. For the same compound, the T/C (dose: 266.0 mg/kg/injection, schedule: Q01DX009 (ip), vehicle: saline) was 190 % of control and the T/C (dose: 400.0 mg/kg/injection, schedule: Q01DX009 (ip), vehicle: saline) was 226 % of control and 200 % of control.

`Cc1nc(N(C)C)c2cnn(-c3ccccc3)c2n1` was tested, and the T/C [13] was 105 % of control, the T/C [14] was 105 % of control and the T/C [1] was 105 % of control.

With `O=c1cc(-c2ccccc2)[nH]c(=S)[nH]1` the T/C [10] was 95 % of control, the T/C [11] was 104 % of control and the T/C [12] was 100 % of control.

In the case of `CN=C1c2ccccc2C2(c3ccccc3)C1N2C` (stereo unspecified), the T/C (dose: 37.5 mg/kg/injection, schedule: Q01DX009 (ip), vehicle: saline with Tween-80) is reported as 104 % of control, the T/C (dose: 75.0 mg/kg/injection, schedule: Q01DX009 (ip), vehicle: saline with Tween-80) is reported as 109 % of control and the T/C (dose: 150.0 mg/kg/injection, schedule: Q01DX009 (ip), vehicle: saline with Tween-80) is reported as 118 % of control.

`CCOC(=O)NCNC(=O)OCC` was tested, and the T/C (dose: 100.0 mg/kg/injection, schedule: Q04DX003 (ip), vehicle: saline sonified) was 100 % of control, the T/C (dose: 200.0 mg/kg/injection, schedule: Q04DX003 (ip), vehicle: saline sonified) was 108 % of control and the T/C (dose: 400.0 mg/kg/injection, schedule: Q04DX003 (ip), vehicle: saline sonified) was 108 % of control.

For `CC(C)C(Br)C(=O)NCC(=O)NCC(=O)O` (stereo unspecified), the T/C [10] was 104 % of control, the T/C [11] was 109 % of control and the T/C [12] was 100 % of control.
